The target in the first assay is human PDE4D catalytic domain (Homo sapiens (Human), UniProt Q08499). Nature of the assay: PDE4 Assay (TR-FRET, FAM-cAMP cleavage). The following applies: Table 16, Examples 277-296; read-out: PDE4 IC50 range. It counts as biochemical. The method, then: The human PDE4D catalytic domain (UniProt no. Q08499 [S380-L740]) was incubated with a mixture of non-labelled cAMP (cyclic adenosine monophosphate) and fluorescein amidite (FAM) conjugated cAMP and titrated test or reference Compound. Following brief incubation the enzymatic reaction was stopped by addition of binding buffer containing nanoparticles with immobilized trivalent metal ions capable of binding 1) AMP phospho groups and 2) terbium (Tb) donor fluorophores. Subsequent excitation of the Tb donor triggers time-resolved FRET to adjacent FAM acceptor molecules resulting in light emission. In the presence of a PDE4 inhibitor, AMP generation was reduced resulting in a lower fluorescence signal. The cAMP phosphodiester is not bound by the detection system.
human PDE4D catalytic domain, sequence (Q08499 380-740): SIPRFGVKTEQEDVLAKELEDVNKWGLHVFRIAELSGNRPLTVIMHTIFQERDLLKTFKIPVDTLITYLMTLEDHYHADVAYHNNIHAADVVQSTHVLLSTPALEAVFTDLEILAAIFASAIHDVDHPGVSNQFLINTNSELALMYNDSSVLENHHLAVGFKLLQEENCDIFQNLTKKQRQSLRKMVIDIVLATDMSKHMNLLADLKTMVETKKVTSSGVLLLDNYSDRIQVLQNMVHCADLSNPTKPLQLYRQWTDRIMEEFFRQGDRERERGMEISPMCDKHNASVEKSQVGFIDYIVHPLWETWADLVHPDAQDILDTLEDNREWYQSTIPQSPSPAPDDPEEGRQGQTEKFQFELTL
The results were calculated as the molar concentrations resulting in 50% inhibition of the substrate cleavage compared to controls samples, and are expressed as a range of IC50 (nM).
Regarding `CCn1nc(C[C@@H](C)COC(=O)c2ccns2)c2c1C(=O)NCC1(CCOCC1)C2` [Example 283, [(2R)-3-(1-ethyl-8-oxo-spiro[6,7-dihydro-4H-pyrazolo[3,4-c]azepine-5,4′-tetrahydropyran]-3-yl)-2-methyl-propyl] isothiazole-5-carboxylate], the IC50 is below 100 nM.

Turning to `CCn1nc(C[C@@H](C)COC(=O)c2cncs2)c2c1C(=O)NCC1(CCOCC1)C2` [Example 286, [(2R)-3-(1-ethyl-8-oxo-spiro[6,7-dihydro-4H-pyrazolo[3,4-c]azepine-5,4′-tetrahydropyran]-3-yl)-2-methyl-propyl] thiazole-5-carboxylate], the IC50 is below 100 nM.

Staying with this assay, now noted: Table 17, Examples 297-316; read-out: PDE4 IC50 range.
Take `CCn1nc(CC(C)(C)COC(=O)c2cocn2)c2c1C(=O)NCC1(CCOCC1)C2` [Example 297, [3-(1-ethyl-8-oxo-spiro[6,7-dihydro-4H-pyrazolo[3,4-c]azepine-5,4′-tetrahydro-pyran]-3-yl)-2,2-dimethyl-propyl] oxazole-4-carboxylate]: the IC50 is below 100 nM.

Take `CCn1nc(CC(C)(C)COC(=O)c2cnc(C)o2)c2c1C(=O)NCC1(CCOCC1)C2` [Example 302, [3-(1-ethyl-8-oxo-spiro[6,7-dihydro-4H-pyrazolo[3,4-c]azepine-5,4′-tetrahydropyran]-3-yl)-2,2-dimethyl-propyl] 2-methyloxazole-5-carboxylate]: the IC50 was below 100 nM.

Staying with this assay, now noted: human PDE4D catalytic domain (UniProt Q08499 [S380-L740]); 50% inhibition of substrate cleavage; read-out: PDE4 IC50 range.
In the case of `CCn1nc(CC(C)(C)COC(=O)c2ccc(F)cc2)c2c1C(=O)NCC1(CCOCC1)C2` [Example 192, [3-(1-ethyl-8-oxo-spiro[6,7-dihydro-4H-pyrazolo[3,4-c]azepine-5,4′-tetrahydropyran]-3-yl)-2,2-dimethyl-propyl] 4-fluorobenzoate], the IC50 is below 100 nM.

Take `CCn1nc(C[C@@H](C)COC(=O)c2ccc(C(=O)NC)cc2)c2c1C(=O)NCC1(CCOCC1)C2` [Example 170, [(2R)-3-(1-ethyl-8-oxo-spiro[6,7-dihydro-4H-pyrazolo[3,4-c]azepine-5,4′-tetrahydropyran]-3-yl)-2-methyl-propyl] 4-(methylcarbamoyl)benzoate]: the IC50 was below 100 nM.

With `CCn1nc(CCCCOC(=O)c2ccc(C(=O)NC)cc2)c2c1C(=O)NCC1(CCOCC1)C2` [Example 128, 4-(1-ethyl-8-oxo-spiro[6,7-dihydro-4H-pyrazolo[3,4-c]azepine-5,4′-tetrahydropyran]-3-yl)butyl 4-(methyl-carbamoyl)benzoate], the IC50 is below 100 nM.

As for `CCn1nc(CC(C)(C)COC(=O)c2cccc(C(C)=O)c2)c2c1C(=O)NCC1(CCOCC1)C2` [Example 201, [3-(1-ethyl-8-oxo-spiro[6,7-dihydro-4H-pyrazolo[3,4-c]azepine-5,4′-tetrahydropyran]-3-yl)-2,2-dimethyl-propyl] 3-acetylbenzoate], the IC50 was below 100 nM.

For the compound `CCn1nc(CC(C)(C)COC(=O)[C@H]2CC[C@H](O)CC2)c2c1C(=O)NCC1(CCOCC1)C2` [Example 194, [3-(1-ethyl-8-oxo-spiro[6,7-dihydro-4H-pyrazolo[3,4-c]azepine-5,4′-tetrahydropyran]-3-yl)-2,2-dimethyl-propyl] 4-hydroxycyclohexane-carboxylate], the IC50 was below 100 nM.

As for `CCn1nc(CCCOC(=O)c2ccc(S(=O)(=O)N3CCCC3)cc2)c2c1C(=O)NCC1(CCOCC1)C2` [Example 96, 3-(1-ethyl-8-oxo-spiro[6,7-dihydro-4H-pyrazolo[3,4-c]azepine-5,4′-tetrahydro-pyran]-3-yl)propyl 4-pyrro-lidin-1-ylsulfonylbenzoate], the IC50 was below 100 nM.

Turning to `CCn1nc(C[C@@H](C)COC(=O)c2cccc(S(=O)(=O)C(C)C)c2)c2c1C(=O)NCC1(CCOCC1)C2` [Example 159, [(2R)-3-(1-ethyl-8-oxo-spiro[6,7-dihydro-4H-pyrazolo[3,4-c]azepine-5,4′-tetrahydropyran]-3-yl)-2-methyl-propyl] 3-isopropylsulfonylbenzoate], the IC50 is below 100 nM.

As for `CCn1nc(CC(C)(C)COC(=O)c2ccc(C)cc2)c2c1C(=O)NCC1(CCOCC1)C2` [Example 188, [3-(1-ethyl-8-oxo-spiro[6,7-dihydro-4H-pyrazolo[3,4-c]azepine-5,4′-tetrahydropyran]-3-yl)-2,2-dimethyl-propyl] 4-methylbenzoate], the IC50 is below 100 nM.

As to `CCn1nc(CCCOC(=O)c2ccc(Cl)cc2C(F)(F)F)c2c1C(=O)NCC1(CCOCC1)C2` [Example 84, 3-(1-ethyl-8-oxo-spiro[6,7-dihydro-4H-pyrazolo[3,4-c]azepine-5,4′-tetrahydropyran]-3-yl)propyl 4-chloro-2-(trifluoromethyl)benzoate], the IC50 is below 100 nM.

As to `CCn1nc(CCCOC(=O)c2coc(C)n2)c2c1C(=O)NCC1(CCOCC1)C2` [Example 240, 3-(1-ethyl-8-oxo-spiro[6,7-dihydro-4H-pyrazolo[3,4-c]azepine-5,4′-tetrahydropyran]-3-yl)propyl 2-methyloxazole-4-carboxylate], the IC50 is below 100 nM.

For the compound `CCn1nc(CCCOC(=O)c2cccc(S(=O)(=O)CC)c2)c2c1C(=O)NCC1(CCOCC1)C2` [Example 76, 3-(1-ethyl-8-oxo-spiro[6,7-dihydro-4H-pyrazolo[3,4-c]azepine-5,4′-tetrahydro-pyran]-3-yl)propyl 3-ethylsulfonylbenzoate], the IC50 was below 100 nM.

In the case of `CCn1nc(CCCOC(=O)c2cccc(C#N)c2)c2c1C(=O)NCC1(CCOCC1)C2` [Example 11, 3-(1-ethyl-8-oxo-spiro[6,7-dihydro-4H-pyrazolo[3,4-c]azepine-5,4′-tetrahydropyran]-3-yl) propyl 3-cyanobenzoate], the IC50 is below 100 nM.

With `CCn1nc(CCCOC(=O)c2cccc(Cl)c2F)c2c1C(=O)NCC1(CCOCC1)C2` [Example 50, 3-(1-ethyl-8-oxo-spiro[6,7-dihydro-4H-pyrazolo[3,4-c]azepine-5,4′-tetrahydropyran]-3-yl)propyl 3-chloro-2-fluoro-benzoate], the IC50 is below 100 nM.

Consider `CCn1nc(CCCOC(=O)c2ccc(Cl)cc2F)c2c1C(=O)NCC1(CCOCC1)C2` [Example 53, 3-(1-ethyl-8-oxo-spiro[6,7-dihydro-4H-pyrazolo[3,4-c]azepine-5,4′-tetrahydropyran]-3-yl)propyl 4-chloro-2-fluoro-benzoate], for which the IC50 is below 100 nM.

As to `CCn1nc(C[C@@H](C)COC(=O)[C@H]2C[C@@H](O)C2)c2c1C(=O)NCC1(CCOCC1)C2` [Example 138, [(2R)-3-(1-ethyl-8-oxo-spiro[6,7-dihydro-4H-pyrazolo[3,4-c]azepine-5,4′-tetrahydropyran]-3-yl)-2-methyl-propyl] 3-hydroxy-cyclobutanecarboxylate], the IC50 was below 100 nM.

In the case of `CCn1nc(CC(C)(C)COC(=O)c2ccc(S(=O)(=O)NC)cc2)c2c1C(=O)NCC1(CCOCC1)C2` [Example 205, [3-(1-ethyl-8-oxo-spiro[6,7-dihydro-4H-pyrazolo[3,4-c]azepine-5,4′-tetrahydropyran]-3-yl)-2,2-dimethyl-propyl] 4-(methylsulfamoyl)benzoate], the IC50 is below 100 nM.

Turning to `CCn1nc(C[C@@H](C)COC(=O)c2cccc(C(=O)N3CCOCC3)c2)c2c1C(=O)NCC1(CCOCC1)C2` [Example 183, [(2R)-3-(1-ethyl-8-oxo-spiro[6,7-dihydro-4H-pyrazolo[3,4-c]azepine-5,4′-tetrahydropyran]-3-yl)-2-methyl-propyl] 3-(morpholine-4-carbonyl)benzoate], the IC50 is below 100 nM.

For the compound `CCn1nc(CCCOC(=O)c2ccc(S(=O)(=O)N3CCN(C(C)=O)CC3)cc2)c2c1C(=O)NCC1(CCOCC1)C2` [Example 102, 3-(1-ethyl-8-oxo-spiro[6,7-dihydro-4H-pyrazolo[3,4-c]azepine-5,4′-tetrahydropyran]-3-yl)propyl 4-(4-acetylpiperazin-1-yl)sulfonylbenzoate], the IC50 is below 100 nM.

Consider `CCn1nc(CC(C)(C)COC(=O)CCSC)c2c1C(=O)NCC1(CCOCC1)C2` [Example 187, [3-(1-ethyl-8-oxo-spiro[6,7-dihydro-4H-pyrazolo[3,4-c]azepine-5,4′-tetrahydropyran]-3-yl)-2,2-dimethyl-propyl] 3-methylsulfanylpropanoate], for which the IC50 is below 100 nM.

As for `CCn1nc(CCCOC(=O)c2cccc(S(=O)(=O)N3CCN(C(C)=O)CC3)c2)c2c1C(=O)NCC1(CCOCC1)C2` [Example 101, 3-(1-ethyl-8-oxo-spiro[6,7-dihydro-4H-pyrazolo[3,4-c]azepine-5,4′-tetrahydropyran]-3-yl)propyl 3-(4-acetylpiperazin-1-yl)sulfonylbenzoate], the IC50 was below 100 nM.

For `CCn1nc(C[C@@H](C)COC(=O)c2cccc(C(=O)N3CCCC3)c2)c2c1C(=O)NCC1(CCOCC1)C2` [Example 181, [(2R)-3-(1-ethyl-8-oxo-spiro[6,7-dihydro-4H-pyrazolo[3,4-c]azepine-5,4′-tetrahydropyran]-3-yl)-2-methyl-propyl] 3-(pyrrolidine-1-carbonyl)benzoate], the IC50 is below 100 nM.

Take `CCn1nc(CC(C)(C)COC(=O)c2ccc(OC)cc2)c2c1C(=O)NCC1(CCOCC1)C2` [Example 197, [3-(1-ethyl-8-oxo-spiro[6,7-dihydro-4H-pyrazolo[3,4-c]azepine-5,4′-tetrahydropyran]-3-yl)-2,2-dimethyl-propyl] 4-methoxybenzoate]: the half-maximal inhibitory concentration (IC50) was below 100 nM.

Regarding `CCn1nc(CCCCOC(=O)C2CCOC2)c2c1C(=O)NCC1(CCOCC1)C2` (stereo not drawn) [Example 265, 4-(1-ethyl-8-oxo-spiro[6,7-dihydro-4H-pyrazolo[3,4-c]azepine-5,4′-tetrahydropyran]-3-yl)butyl tetrahydrofuran-3-carboxylate], the IC50 is below 100 nM.
